Experimental data published in BigSolDB 2.1.

Conditions: in water

solubility (mole fraction) (278.15 K) | solubility (mole fraction) (283.15 K) | solubility (mole fraction) (288.15 K) | solubility (mole fraction) (293.15 K) | solubility (mole fraction) (298.15 K) | solubility (mole fraction) (303.15 K) | solubility (mole fraction) (308.15 K) | solubility (mole fraction) (313.15 K) | solubility (mole fraction) (318.15 K) | solubility (mole fraction) (323.15 K) | solubility (mole fraction) (328.15 K) | solubility (mole fraction) (333.15 K) | Compound
0.134 | 0.163 | 0.195 | 0.232 | 0.276 | 0.315 | 0.371 | 0.4 | 0.45 | 0.486 | 0.527 | 0.568 | CCC(N)=O
0.0163 | 0.021 | 0.026 | 0.0331 | 0.0442 | 0.0575 | 0.0724 | 0.0895 | 0.109 | 0.131 | 0.152 | 0.175 | CCCC(N)=O
